# Assays:
# [1] = Dansyl-polymyxin B displacement assay (LPS binding affinity); parameters: species or system E. coli; conditions: LPS 3 μg/mL in 5 mM HEPES pH 7.2, 25 °C, fluorescence; result in words, Figure 5
# Method: As most of the outer membrane is LPS, the affinity of peptide analogs to LPS of E. coli was further detected by dansyl-polymyxin B displacement assay. As it is the polar face of the molecule that binds LPS, and all the peptides V16A, V16S, V16G and P have the same number of positively charged residues on the polar face, they would be expected to have similar effects on LPS affinity (Figure 5).
# Dansyl-polymyxin B was synthesized, purified and quantified as reported. It was then dissolved in HEPES buffer (5 mM, pH 7.2) at the concentration of 100 μM and the final concentration of LPS is 3 μg/mL in the same buffer. Fluorescence measurements were run on a Shimadzu RF-5301 spectrofluorometer using a 3 mL quartz cuvette with an excitation wavelength of 350 nm and an emission wavelength of 420 nm at 25 °C. For displacement assay, 15 μL of peptide solution (10 mg/mL) was titrated into the cuvette containing 2 mL LPS and 0.25 mL dansyl-polymyxin B, and the decrease in the observed fluorescence (percent inhibition) was recorded.
# [2] = Tryptophan fluorescence, binding to lipid vesicles; conditions: for Tryptophan fluorescence emission maximum: excitation 280 nm
# Method: Upon peptide diffusion into the cytoplasmic membrane, evidence of selective interaction between peptides with bacterial versus mammalian cytoplasmic membrane was illustrated by the binding events of the peptides to anionic or zwitterionic lipid vesicles. […] Lipid/peptide (L/P) ratios were maintained high enough at low peptide concentration (2 μM) in order to mimic the initial steps of peptide-membrane binding. The spectra were recorded as shown in Supplementary Figure S1. […] The significant blue shifts of Δλmax (17 to 23 nm) for all peptides upon exposure to PC/PG vesicles indicated a membrane partition state of Trp in negatively charged vesicles containing 30% anionic lipids (PG).
# Unilamellar vesicles were prepared by a standard procedure with either PC/PG (7:3, w/w) or PC/cholesterol (8:1, w/w) as described previously. Briefly, the desired mixtures of lipids were dissolved in a chloroform/methanol mixture (2:1, v/v), dried under nitrogen and then lyophilized for 24 h to remove traces of organic solvent. Dry lipid films were suspended in 10 mM HEPES buffer containing 150 mM NaCl (pH 7.4) by vortex mixing. After five freeze-thawing cycles, the suspension was extruded 15 times through double polycarbonate membranes with 0.1 μm diameter pores on an Avanti mini-extruder apparatus. The lipid concentration was determined by phosphorus analysis as previously reported.
# Fluorescence emission spectra of peptide Trp residues were monitored by a Shimadzu RF-5301 spectrofluorometer. The excitation of wavelength was set as 280 nm and the emission spectra of each peptide, with or without lipid vesicles, were recorded between 300 and 450 nm. Thus three curves were recorded for each peptide, in HEPES buffer or with either PC/PG vesicles or PC/cholesterol vesicles. The blue shift of Trp residues in vesicles were referred to in buffer condition. The final concentrations of peptide and lipid were 2 μM and 100 μM (1/50), respectively.
# human red blood cells = assay: Hemolytic activity; assay type: cell-based; conditions: peptide 1,000 μg/mL, 1% human erythrocytes in PBS, 37 °C for 4 h, absorbance at 540 nm, 100% = distilled water
# Method: Peptide samples were serially diluted using phosphate-buffered saline (PBS) in 96-well plates (round-bottom) to give a volume of 60 μL of the sample solution in each well. Human erythrocytes that had been anticoagulated using EDTAK2 were collected by centrifugation (1,000 ×g) for 5 min, washed twice with PBS, then diluted to a concentration of 2% in PBS. The erythrocytes (60 μL of 2% solution) were added to each well to achieve a final concentration of 1% human erythrocytes per well, and the reactions were incubated at 37 °C for 4 h. The plates were then centrifuged for 10 min at 3000 rpm and the supernatant (80 μL) was transferred to a 96-well plate (flat-bottom). The release of hemoglobin was determined by measuring the absorbance of the supernatant at 540 nm. Peptide samples were diluted in a 2-fold series to determine the minimum concentration at which hemolysis occurred. Erythrocytes in PBS and distilled water were used as controls of 0% and 100% hemolysis, respectively. Hemolysis percentage was calculated by the absorbance of peptide at the concentration of 1,000 μg/mL and compared with the 100% hemolysis.
# [3] = PC/PG (7:3, w/w) vesicles versus HEPES buffer, lipid:peptide 50:1, peptide 2 μM
# [4] = PC/PG (7:3, w/w) vesicles, lipid and peptide in a molar ratio of 50:1, peptide 2 μM, lipid 100 μM
# [5] = PC/cholesterol (8:1, w/w) vesicles versus HEPES buffer, peptide 2 μM, lipid 100 μM
# [6] = PC/cholesterol (8:1, w/w) vesicles, peptide 2 μM, lipid 100 μM
Molecule,Affinity to LPS (inhibition of dansyl-polymyxin B binding) [1],"Blue shift in emission maximum [2, 3]","Tryptophan fluorescence emission maximum [2, 4]","Blue shift in emission maximum [2, 5]","Tryptophan fluorescence emission maximum [2, 6]",Hemolysis Percentage (human red blood cells)
Ac-KWKSFLKTFKSAKKTKLHTALKAISS-NH2 [Peptide V16K],more affinity than the Ser- or Gly-substituted peptides,21 nm,329 nm,1 nm,349 nm,–
CC[C@H](C)[C@H](NC(=O)[C@H](C)NC(=O)[C@H](CCCCN)NC(=O)[C@H](CC(C)C)NC(=O)[C@H](C)NC(=O)[C@@H](NC(=O)[C@H](Cc1cnc[nH]1)NC(=O)[C@H](CC(C)C)NC(=O)[C@@H](NC(=O)[C@@H](NC(=O)[C@H](CCCCN)NC(=O)[C@H](CCCCN)NC(=O)[C@H](C)NC(=O)[C@H](CO)NC(=O)[C@H](CCCCN)NC(=O)[C@H](Cc1ccccc1)NC(=O)[C@@H](NC(=O)[C@H](CCCCN)NC(=O)[C@H](CC(C)C)NC(=O)[C@H](Cc1ccccc1)NC(=O)[C@H](CO)NC(=O)[C@H](CCCCN)NC(=O)[C@H](Cc1c[nH]c2ccccc12)NC(=O)[C@H](CCCCN)NC(C)=O)[C@@H](C)O)[C@@H](C)O)C(C)C)[C@@H](C)O)C(=O)N[C@@H](CO)C(=O)N[C@@H](CO)C(N)=O [P],–,22 nm,328 nm,1 nm,349 nm,28.3%

# Source: publication PMC6271477, “Effects of Single Amino Acid Substitution on the Biophysical Properties and Biological Activities of an Amphipathic α-Helical Antibacterial Peptide Against Gram-Negative Bacteria” (Molecules, 2014)
